From the kinase profiling compilation of Christmann-Franck et al. (2016)

Key:
Assay in all cases: radiometric filter-binding kinase assay
EPHB3 (human) = EPHB3 (human) (UniProt P54753)
MKNK1 (human) = MKNK1 (human) (UniProt Q9BUB5)
MELK (human) = MELK (human) (UniProt Q14680)
CDK2 CCNA2 (human) = CDK2 CCNA2 (human) (UniProt P20248+P24941)
MKNK2 (human) = MKNK2 (human) (UniProt Q9HBH9)
MINK1 (human) = MINK1 (human) (UniProt Q8N4C8)
DAPK1 (human) = DAPK1 (human) (UniProt P53355)
RPS6KA1 KD1 KD2 (human) = RPS6KA1 KD1 KD2 (human) (UniProt Q15418)
MAP2K2 (human) = MAP2K2 (human) (UniProt P36507)
EEF2K (human) = EEF2K (human) (UniProt O00418)
TTK (human) = TTK (human) (UniProt P33981)
PRKAA1 or PRKAA2 (rat) = settings: accession and sequence are those of the human protein
PHKG1 (human) = PHKG1 (human) (UniProt Q16816)
IKBKB (human) = IKBKB (human) (UniProt O14920)
MAPK1 (human) = MAPK1 (human) (UniProt P28482)
CHEK2 (human) = CHEK2 (human) (UniProt O96017)
CSK (human) = CSK (human) (UniProt P41240)
ROCK2 (rat) = settings: accession and sequence are those of the human protein
PRKACA (human) = PRKACA (human) (UniProt P17612)
[1] = biological target: STK11 CAB39 STRADA (human) (UniProt Q9Y376+Q7RTN6+Q15831)
MAPK13 (human) = MAPK13 (human) (UniProt O15264)
CSNK2A1 (human) = CSNK2A1 (human) (UniProt P68400)
FGFR1 (human) = FGFR1 (human) (UniProt P11362)
MAP3K9 (human) = MAP3K9 (human) (UniProt P80192)
LCK (mouse) = settings: accession and sequence are those of the human protein
AURKB (human) = AURKB (human) (UniProt Q96GD4)
GSK3B (human) = GSK3B (human) (UniProt P49841)
MAPKAPK3 (human) = MAPKAPK3 (human) (UniProt Q16644)
MARK4 (human) = MARK4 (human) (UniProt Q96L34)
ERBB4 (human) = ERBB4 (human) (UniProt Q15303)
MYLK (human) = MYLK (human) (UniProt Q15746)
NTRK1 (human) = NTRK1 (human) (UniProt P04629)
INSRR (human) = INSRR (human) (UniProt P14616)
PRKCZ (human) = PRKCZ (human) (UniProt Q05513)
SRC (human) = SRC (human) (UniProt P12931)
Sequence of SRC (human) (P12931 whole entry, looked up): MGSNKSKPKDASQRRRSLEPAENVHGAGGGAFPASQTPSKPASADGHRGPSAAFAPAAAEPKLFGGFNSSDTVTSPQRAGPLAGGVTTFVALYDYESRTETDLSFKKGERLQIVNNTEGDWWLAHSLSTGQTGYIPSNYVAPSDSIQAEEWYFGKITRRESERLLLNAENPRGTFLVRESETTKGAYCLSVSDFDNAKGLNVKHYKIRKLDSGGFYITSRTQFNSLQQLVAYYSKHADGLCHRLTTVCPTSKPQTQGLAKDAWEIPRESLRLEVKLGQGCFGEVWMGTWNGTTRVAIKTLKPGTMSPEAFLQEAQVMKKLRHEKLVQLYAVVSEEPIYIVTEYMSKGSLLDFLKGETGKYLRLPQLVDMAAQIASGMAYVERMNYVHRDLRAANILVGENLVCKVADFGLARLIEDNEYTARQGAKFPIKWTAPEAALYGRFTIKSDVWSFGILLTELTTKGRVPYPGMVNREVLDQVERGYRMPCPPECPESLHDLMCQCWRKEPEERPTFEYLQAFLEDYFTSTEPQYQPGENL

Sequence of ERBB4 (human) (Q15303 whole entry, looked up): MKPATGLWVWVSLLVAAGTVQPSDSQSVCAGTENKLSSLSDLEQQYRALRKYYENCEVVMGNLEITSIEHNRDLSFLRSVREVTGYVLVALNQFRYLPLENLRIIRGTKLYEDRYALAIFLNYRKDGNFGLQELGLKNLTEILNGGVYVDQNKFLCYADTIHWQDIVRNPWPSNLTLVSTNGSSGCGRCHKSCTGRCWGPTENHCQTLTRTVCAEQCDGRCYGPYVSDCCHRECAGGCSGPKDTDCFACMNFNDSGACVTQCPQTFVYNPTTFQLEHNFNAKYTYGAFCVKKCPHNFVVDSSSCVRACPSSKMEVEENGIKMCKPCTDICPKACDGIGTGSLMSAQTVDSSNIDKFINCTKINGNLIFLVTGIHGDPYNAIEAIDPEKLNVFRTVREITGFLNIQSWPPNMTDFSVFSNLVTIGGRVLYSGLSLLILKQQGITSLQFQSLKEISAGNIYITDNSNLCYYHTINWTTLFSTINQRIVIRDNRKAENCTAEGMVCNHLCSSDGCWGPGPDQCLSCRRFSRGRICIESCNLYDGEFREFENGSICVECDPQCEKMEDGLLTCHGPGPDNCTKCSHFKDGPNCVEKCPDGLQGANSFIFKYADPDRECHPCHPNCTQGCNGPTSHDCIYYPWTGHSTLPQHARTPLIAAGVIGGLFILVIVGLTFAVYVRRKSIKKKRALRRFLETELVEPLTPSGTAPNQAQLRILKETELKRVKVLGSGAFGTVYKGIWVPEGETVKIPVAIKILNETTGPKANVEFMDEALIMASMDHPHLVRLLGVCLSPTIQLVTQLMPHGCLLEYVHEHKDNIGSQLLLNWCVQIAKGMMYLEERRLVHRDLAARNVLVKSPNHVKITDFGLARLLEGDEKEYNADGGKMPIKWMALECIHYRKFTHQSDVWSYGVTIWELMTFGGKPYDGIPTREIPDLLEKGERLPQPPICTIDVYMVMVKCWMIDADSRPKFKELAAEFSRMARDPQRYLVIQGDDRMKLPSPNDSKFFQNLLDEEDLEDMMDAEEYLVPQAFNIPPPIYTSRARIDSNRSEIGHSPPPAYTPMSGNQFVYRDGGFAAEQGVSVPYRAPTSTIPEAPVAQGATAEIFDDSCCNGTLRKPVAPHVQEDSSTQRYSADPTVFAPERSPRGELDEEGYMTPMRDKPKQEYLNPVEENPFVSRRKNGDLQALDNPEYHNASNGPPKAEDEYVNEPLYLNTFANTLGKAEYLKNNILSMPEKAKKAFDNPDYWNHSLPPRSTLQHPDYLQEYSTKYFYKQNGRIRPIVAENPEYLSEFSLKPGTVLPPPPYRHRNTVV
Sequence of CSK (human) (P41240 whole entry, looked up): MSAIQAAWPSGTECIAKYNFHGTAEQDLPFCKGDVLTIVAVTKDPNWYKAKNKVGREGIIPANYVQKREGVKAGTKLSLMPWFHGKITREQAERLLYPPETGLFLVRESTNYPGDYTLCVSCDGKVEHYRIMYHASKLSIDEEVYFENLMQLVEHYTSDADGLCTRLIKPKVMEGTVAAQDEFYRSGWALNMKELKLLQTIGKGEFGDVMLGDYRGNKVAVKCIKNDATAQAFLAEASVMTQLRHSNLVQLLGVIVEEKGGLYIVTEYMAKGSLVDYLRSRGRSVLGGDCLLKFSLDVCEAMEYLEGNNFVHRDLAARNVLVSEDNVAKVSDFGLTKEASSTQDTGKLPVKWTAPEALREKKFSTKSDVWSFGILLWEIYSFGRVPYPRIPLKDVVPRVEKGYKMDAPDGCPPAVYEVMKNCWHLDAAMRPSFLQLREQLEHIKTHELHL
Sequence of MAPK13 (human) (O15264 whole entry, looked up): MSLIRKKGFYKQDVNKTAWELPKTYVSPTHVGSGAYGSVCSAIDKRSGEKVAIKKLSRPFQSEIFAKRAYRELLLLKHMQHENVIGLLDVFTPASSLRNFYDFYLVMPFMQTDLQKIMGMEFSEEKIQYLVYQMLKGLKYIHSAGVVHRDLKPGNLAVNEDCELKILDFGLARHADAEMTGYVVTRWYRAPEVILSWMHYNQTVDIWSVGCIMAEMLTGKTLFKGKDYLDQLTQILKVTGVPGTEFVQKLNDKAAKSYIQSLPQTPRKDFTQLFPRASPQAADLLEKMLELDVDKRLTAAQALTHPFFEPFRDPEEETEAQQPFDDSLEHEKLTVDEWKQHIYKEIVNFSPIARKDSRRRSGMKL
Sequence of DAPK1 (human) (P53355 whole entry, looked up): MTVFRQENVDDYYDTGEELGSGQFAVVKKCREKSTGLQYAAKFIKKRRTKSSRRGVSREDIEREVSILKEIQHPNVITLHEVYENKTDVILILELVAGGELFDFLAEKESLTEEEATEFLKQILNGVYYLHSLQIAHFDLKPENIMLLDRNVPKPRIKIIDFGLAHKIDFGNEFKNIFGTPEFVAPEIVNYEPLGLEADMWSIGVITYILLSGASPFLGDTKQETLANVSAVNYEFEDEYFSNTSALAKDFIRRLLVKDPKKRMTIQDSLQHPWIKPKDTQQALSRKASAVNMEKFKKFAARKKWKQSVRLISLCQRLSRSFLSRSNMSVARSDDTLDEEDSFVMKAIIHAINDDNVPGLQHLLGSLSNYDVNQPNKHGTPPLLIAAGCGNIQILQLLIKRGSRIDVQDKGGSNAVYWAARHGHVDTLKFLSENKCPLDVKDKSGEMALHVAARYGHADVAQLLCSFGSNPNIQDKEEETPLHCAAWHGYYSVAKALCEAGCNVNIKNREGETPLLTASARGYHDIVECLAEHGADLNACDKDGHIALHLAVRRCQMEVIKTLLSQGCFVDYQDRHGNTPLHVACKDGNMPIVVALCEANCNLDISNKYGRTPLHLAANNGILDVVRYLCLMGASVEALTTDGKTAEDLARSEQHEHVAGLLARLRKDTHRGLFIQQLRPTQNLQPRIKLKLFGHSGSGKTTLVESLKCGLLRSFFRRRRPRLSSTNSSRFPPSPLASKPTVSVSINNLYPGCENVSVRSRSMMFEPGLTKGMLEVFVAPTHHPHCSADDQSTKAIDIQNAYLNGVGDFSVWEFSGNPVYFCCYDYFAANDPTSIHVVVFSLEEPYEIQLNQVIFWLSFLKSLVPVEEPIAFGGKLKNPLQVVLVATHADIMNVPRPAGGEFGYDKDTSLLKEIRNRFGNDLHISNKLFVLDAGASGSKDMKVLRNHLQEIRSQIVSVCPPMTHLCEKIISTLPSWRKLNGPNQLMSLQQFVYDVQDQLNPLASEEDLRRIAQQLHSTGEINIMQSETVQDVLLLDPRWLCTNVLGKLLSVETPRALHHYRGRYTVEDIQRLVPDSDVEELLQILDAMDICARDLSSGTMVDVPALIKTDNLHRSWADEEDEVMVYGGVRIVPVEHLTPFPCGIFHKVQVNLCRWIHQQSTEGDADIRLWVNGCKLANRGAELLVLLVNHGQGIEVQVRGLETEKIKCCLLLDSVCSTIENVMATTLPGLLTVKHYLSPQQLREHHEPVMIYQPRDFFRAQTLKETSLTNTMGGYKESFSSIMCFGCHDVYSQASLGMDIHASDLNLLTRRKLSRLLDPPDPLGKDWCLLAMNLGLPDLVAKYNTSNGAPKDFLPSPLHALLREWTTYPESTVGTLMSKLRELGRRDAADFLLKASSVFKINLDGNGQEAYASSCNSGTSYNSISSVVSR
Sequence of MKNK2 (human) (Q9HBH9 whole entry, looked up): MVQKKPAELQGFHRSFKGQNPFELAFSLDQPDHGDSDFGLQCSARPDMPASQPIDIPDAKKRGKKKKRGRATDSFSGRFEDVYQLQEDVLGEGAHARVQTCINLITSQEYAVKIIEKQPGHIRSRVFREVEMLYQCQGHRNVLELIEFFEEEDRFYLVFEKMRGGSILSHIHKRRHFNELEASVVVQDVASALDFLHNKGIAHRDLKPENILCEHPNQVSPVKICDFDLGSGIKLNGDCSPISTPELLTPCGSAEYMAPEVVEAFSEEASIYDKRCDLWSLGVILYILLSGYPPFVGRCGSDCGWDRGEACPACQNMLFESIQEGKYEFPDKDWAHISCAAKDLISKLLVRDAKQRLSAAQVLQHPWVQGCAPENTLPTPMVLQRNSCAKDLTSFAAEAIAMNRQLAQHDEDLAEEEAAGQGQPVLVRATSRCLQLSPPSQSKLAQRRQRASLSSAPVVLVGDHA
Sequence of AURKB (human) (Q96GD4 whole entry, looked up): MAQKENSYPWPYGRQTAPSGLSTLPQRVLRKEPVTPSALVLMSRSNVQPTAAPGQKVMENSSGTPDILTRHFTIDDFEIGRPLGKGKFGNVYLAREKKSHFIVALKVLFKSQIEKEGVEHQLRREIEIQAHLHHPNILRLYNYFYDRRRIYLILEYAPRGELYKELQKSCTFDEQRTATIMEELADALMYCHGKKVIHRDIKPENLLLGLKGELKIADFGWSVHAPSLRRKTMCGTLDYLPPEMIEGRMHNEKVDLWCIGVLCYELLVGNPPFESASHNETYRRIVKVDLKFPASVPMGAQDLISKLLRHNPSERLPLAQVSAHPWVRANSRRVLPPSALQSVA

COc1cc(C(=O)N2CCOCC2)c(F)cc1Nc1ncc(C(F)(F)F)c(NC2CC2)n1
residual activity (EPHB3 (human); compound 1.0 µM): 91%
residual activity (EPHB3 (human); compound 10.0 µM): 105%
residual activity (MKNK1 (human); compound 1.0 µM): 74%
residual activity (MKNK1 (human); compound 10.0 µM): 26%
residual activity (MELK (human); compound 1.0 µM): 91%
residual activity (MELK (human); compound 10.0 µM): 39%
residual activity (CDK2 CCNA2 (human); compound 1.0 µM): 94%
residual activity (CDK2 CCNA2 (human); compound 10.0 µM): 72%
residual activity (MKNK2 (human); compound 1.0 µM): 58%
residual activity (MKNK2 (human); compound 10.0 µM): 22%
residual activity (MINK1 (human); compound 1.0 µM): 124%
residual activity (MINK1 (human); compound 10.0 µM): 109%
residual activity (DAPK1 (human); compound 1.0 µM): 53%
residual activity (DAPK1 (human); compound 10.0 µM): 11%
residual activity (RPS6KA1 KD1 KD2 (human); compound 1.0 µM): 54%
residual activity (RPS6KA1 KD1 KD2 (human); compound 10.0 µM): 14%
residual activity (MAP2K2 (human); compound 1.0 µM): 118%
residual activity (MAP2K2 (human); compound 10.0 µM): 98%
residual activity (EEF2K (human); compound 1.0 µM): 103%
residual activity (EEF2K (human); compound 10.0 µM): 107%
residual activity (TTK (human); compound 1.0 µM): 56%
residual activity (TTK (human); compound 10.0 µM): 31%
residual activity (PRKAA1 or PRKAA2 (rat); compound 10.0 µM): 70%
residual activity (PHKG1 (human); compound 1.0 µM): 45%
residual activity (PHKG1 (human); compound 10.0 µM): 8%
residual activity (IKBKB (human); compound 1.0 µM): 97%
residual activity (IKBKB (human); compound 10.0 µM): 89%
residual activity (MAPK1 (human); compound 1.0 µM): 95%
residual activity (MAPK1 (human); compound 10.0 µM): 55%
residual activity (CHEK2 (human); compound 1.0 µM): 18%
residual activity (CHEK2 (human); compound 10.0 µM): 3%
residual activity (CSK (human); compound 1.0 µM): 102%
residual activity (CSK (human); compound 10.0 µM): 101%
residual activity (ROCK2 (rat); compound 1.0 µM): 95%
residual activity (ROCK2 (rat); compound 10.0 µM): 78%
residual activity (PRKACA (human); compound 1.0 µM): 102%
residual activity ([1]; compound 1.0 µM): 88%
residual activity ([1]; compound 10.0 µM): 92%
residual activity (MAPK13 (human); compound 1.0 µM): 97%
residual activity (CSNK2A1 (human); compound 1.0 µM): 96%
residual activity (CSNK2A1 (human); compound 10.0 µM): 74%
residual activity (FGFR1 (human); compound 1.0 µM): 97%
residual activity (FGFR1 (human); compound 10.0 µM): 104%
residual activity (MAP3K9 (human); compound 1.0 µM): 39%
residual activity (MAP3K9 (human); compound 10.0 µM): 7%
residual activity (LCK (mouse); compound 10.0 µM): 102%
residual activity (AURKB (human); compound 1.0 µM): 68%
residual activity (AURKB (human); compound 10.0 µM): 24%
residual activity (GSK3B (human); compound 1.0 µM): 73%
residual activity (GSK3B (human); compound 10.0 µM): 43%
residual activity (MAPKAPK3 (human); compound 1.0 µM): 108%
residual activity (MAPKAPK3 (human); compound 10.0 µM): 124%
residual activity (MARK4 (human); compound 1.0 µM): 95%
residual activity (MARK4 (human); compound 10.0 µM): 52%
residual activity (ERBB4 (human); compound 1.0 µM): 74%
residual activity (ERBB4 (human); compound 10.0 µM): 65%
residual activity (MYLK (human); compound 1.0 µM): 44%
residual activity (MYLK (human); compound 10.0 µM): 8%
residual activity (NTRK1 (human); compound 1.0 µM): 70%
residual activity (NTRK1 (human); compound 10.0 µM): 54%
residual activity (INSRR (human); compound 1.0 µM): 84%
residual activity (INSRR (human); compound 10.0 µM): 67%
residual activity (PRKCZ (human); compound 1.0 µM): 101%
residual activity (PRKCZ (human); compound 10.0 µM): 86%
residual activity (SRC (human); compound 1.0 µM): 107%
residual activity (SRC (human); compound 10.0 µM): 81%

NC(=O)c1c(NC(=O)C2CC2)sc2c1CCCC2
residual activity (EPHB3 (human); compound 1.0 µM): 115%
residual activity (EPHB3 (human); compound 10.0 µM): 109%
residual activity (MKNK1 (human); compound 1.0 µM): 97%
residual activity (MKNK1 (human); compound 10.0 µM): 77%
residual activity (MELK (human); compound 1.0 µM): 71%
residual activity (MELK (human); compound 10.0 µM): 44%
residual activity (CDK2 CCNA2 (human); compound 1.0 µM): 89%
residual activity (CDK2 CCNA2 (human); compound 10.0 µM): 48%
residual activity (MKNK2 (human); compound 1.0 µM): 106%
residual activity (MKNK2 (human); compound 10.0 µM): 115%
residual activity (MINK1 (human); compound 1.0 µM): 80%
residual activity (MINK1 (human); compound 10.0 µM): 37%
residual activity (DAPK1 (human); compound 1.0 µM): 102%
residual activity (DAPK1 (human); compound 10.0 µM): 86%
residual activity (RPS6KA1 KD1 KD2 (human); compound 1.0 µM): 101%
residual activity (RPS6KA1 KD1 KD2 (human); compound 10.0 µM): 95%
residual activity (MAP2K2 (human); compound 1.0 µM): 93%
residual activity (MAP2K2 (human); compound 10.0 µM): 74%
residual activity (EEF2K (human); compound 1.0 µM): 97%
residual activity (EEF2K (human); compound 10.0 µM): 90%
residual activity (TTK (human); compound 1.0 µM): 100%
residual activity (TTK (human); compound 10.0 µM): 80%
residual activity (PRKAA1 or PRKAA2 (rat); compound 1.0 µM): 103%
residual activity (PRKAA1 or PRKAA2 (rat); compound 10.0 µM): 86%
residual activity (PHKG1 (human); compound 1.0 µM): 108%
residual activity (PHKG1 (human); compound 10.0 µM): 62%
residual activity (IKBKB (human); compound 1.0 µM): 100%
residual activity (IKBKB (human); compound 10.0 µM): 93%
residual activity (MAPK1 (human); compound 1.0 µM): 99%
residual activity (MAPK1 (human); compound 10.0 µM): 89%
residual activity (CHEK2 (human); compound 1.0 µM): 74%
residual activity (CHEK2 (human); compound 10.0 µM): 35%
residual activity (CSK (human); compound 1.0 µM): 96%
residual activity (CSK (human); compound 10.0 µM): 88%
residual activity (ROCK2 (rat); compound 1.0 µM): 95%
residual activity (ROCK2 (rat); compound 10.0 µM): 91%
residual activity (PRKACA (human); compound 1.0 µM): 100%
residual activity (PRKACA (human); compound 10.0 µM): 102%
residual activity ([1]; compound 1.0 µM): 91%
residual activity ([1]; compound 10.0 µM): 81%
residual activity (MAPK13 (human); compound 1.0 µM): 116%
residual activity (MAPK13 (human); compound 10.0 µM): 97%
residual activity (CSNK2A1 (human); compound 10.0 µM): 106%
residual activity (FGFR1 (human); compound 1.0 µM): 105%
residual activity (FGFR1 (human); compound 10.0 µM): 46%
residual activity (MAP3K9 (human); compound 1.0 µM): 72%
residual activity (MAP3K9 (human); compound 10.0 µM): 32%
residual activity (LCK (mouse); compound 1.0 µM): 98%
residual activity (LCK (mouse); compound 10.0 µM): 77%
residual activity (AURKB (human); compound 1.0 µM): 79%
residual activity (AURKB (human); compound 10.0 µM): 62%
residual activity (GSK3B (human); compound 1.0 µM): 90%
residual activity (GSK3B (human); compound 10.0 µM): 42%
residual activity (MAPKAPK3 (human); compound 1.0 µM): 100%
residual activity (MAPKAPK3 (human); compound 10.0 µM): 93%
residual activity (MARK4 (human); compound 1.0 µM): 105%
residual activity (MARK4 (human); compound 10.0 µM): 69%
residual activity (ERBB4 (human); compound 1.0 µM): 106%
residual activity (ERBB4 (human); compound 10.0 µM): 98%
residual activity (MYLK (human); compound 1.0 µM): 96%
residual activity (MYLK (human); compound 10.0 µM): 49%
residual activity (NTRK1 (human); compound 1.0 µM): 90%
residual activity (NTRK1 (human); compound 10.0 µM): 30%
residual activity (INSRR (human); compound 1.0 µM): 97%
residual activity (INSRR (human); compound 10.0 µM): 52%
residual activity (PRKCZ (human); compound 1.0 µM): 104%
residual activity (PRKCZ (human); compound 10.0 µM): 104%
residual activity (SRC (human); compound 1.0 µM): 102%
residual activity (SRC (human); compound 10.0 µM): 87%
